In patent publication US10398144B2, “N-,C-disubstituted azoles and compositions and methods for controlling nematode pests” (Monsanto Technology LLC, priority 2013, dated 2019):
Marks after values point to notes of the source that are not given here.

What was measured:
[1] = tested on: Meloidogyne incognita nematodes; experiment: Miniaturized greenhouse nematicidal efficacy assay (cucumber root gall rating); settings: average of triplicate gall ratings
Method: A miniaturized greenhouse assay was conducted to study the effects of several N-,C-disubstituted azole analogs on Meloidogyne incognita nematodes.
Cucumber seeds were sprouted for 3 days in moist paper towels. Acceptable sprouts were 3 to 4 cm long, with several lateral roots just emerging.
Each test solution was evaluated in triplicate. Dry sand (10 mL) was added to each vial. Seedlings were planted by tilting the vial and laying the seedling in the correct orientation so that the cotyledons were just above the sand, and then tilting back to cover the radicles with sand.
A sample of the test solution (3.3 mL) was then added to each vial, and the vials were placed in racks under fluorescent light banks. The vials were inoculated two days after planting by adding 500 vermiform M. incognita eggs to each vial in deionized or spring water (50 μL). The vials were then kept under the fluorescent lamps at ambient room temperature and watered as needed with deionized water (1 mL), usually twice during duration of test.
Harvest of the cucumber plants was performed 10 to 12 days after inoculation by washing sand off the roots. A root gall rating was assigned using the following Gall rating scale (Gall: % root mass galled): 0=0-5%; 1=6-20%; 2=21-50%; and 3=51-100%.

[2] = 1 ppm, cucumber seedlings in sand, 500 M. incognita eggs, harvest 10 to 12 days after inoculation, scale 0=0-5%, 1=6-20%, 2=21-50%, 3=51-100% root mass galled
[3] = 8 ppm, cucumber seedlings in sand, 500 M. incognita eggs, harvest 10 to 12 days after inoculation, scale 0=0-5%, 1=6-20%, 2=21-50%, 3=51-100% root mass galled
[4] = 40 ppm, cucumber seedlings in sand, 500 M. incognita eggs, harvest 10 to 12 days after inoculation, scale 0=0-5%, 1=6-20%, 2=21-50%, 3=51-100% root mass galled

Compound	melting point	40/8/1 ppm gall ratings [1, 2]	40/8/1 ppm gall ratings [1, 3]	40/8/1 ppm gall ratings [1, 4]	40/8/1 ppm gall ratings ([1]; comparative compositions at 1 ppm, letters a-d mark separate tests, scale 0-3)
c1ccc(-n2ncc(-c3cccs3)n2)cc1 [Formula Id-i, 2-phenyl-4-(thiophen-2-yl)-2H-1,2,3-triazole]	78 °C	–	–	–	–
Clc1ccc(-c2cn(-c3ccco3)cn2)cc1 [IIc-iv, 4-(4-chlorophenyl)-1-(furan-2-yl)-1H-imidazole]	–	2.33	2.00	0.33	–
Fc1ccc(-n2cc(-c3ccco3)nn2)c(F)c1 [Ia-v, 1-(2,4-difluorophenyl)-4-(furan-2-yl)-1H-1,2,3-triazole]	–	2.33	0.67	0.00	–
c1ccc(-c2cn(-c3ccco3)nn2)cc1 [IIa-iii, 1-(furan-2-yl)-4-phenyl-1H-1,2,3-triazole]	–	2.00	1.33	0.00	–
Clc1ccc(-n2cc(-c3ccco3)nn2)cc1 [Ia-iiii, 1-(4-chlorophenyl)-4-(furan-2-yl)-1H-1,2,3-triazole]	–	2.67	1.00	0.00	–
Clc1ccc(-c2cn(-c3ccco3)nn2)cc1 [IIa-v, 4-(4-chlorophenyl)-1-(furan-2-yl)-1H-1,2,3-triazole]	–	2.33	0.67	0.00	–
c1ccc(-n2cc(-c3ccco3)cn2)cc1 [Ib-iii, 4-(furan-2-yl)-1-phenyl-1H-pyrazole]	–	2.67	1.67	0.00	–
c1ccc(-n2cc(-c3ccco3)nn2)cc1 [Ia-i, 4-(furan-2-yl)-1-phenyl-1H-1,2,3-triazole]	–	2.67	1.33	0.00	–
Fc1ccc(-c2cn(-c3cccs3)nn2)cc1 [IIa-iv, 4-(4-fluorophenyl)-1-(thiophen-2-yl)-1H-1,2,3-triazole]	–	2.67	1.33	0.33	–
c1ccc(-n2ncc(-c3ccco3)n2)cc1 [Id-ii, 4-(furan-2-yl)-2-phenyl-2H-1,2,3-triazole]	–	2.33	1.00	0.00	–
Clc1ccc(-n2cc(-c3cccs3)cn2)cc1 [Ib-ii, 1-(4-chlorophenyl)-4-(thiophen-2-yl)-1H-pyrazole]	–	2.33	0.67	0.00	–
Fc1ccc(-c2cn(-c3cccs3)nn2)c(F)c1 [IIa-i, 4-(2,4-difluorophenyl)-1-(thiophen-2-yl)-1H-1,2,3-triazole]	–	1.67	0.00	0.00	–
c1ccc(-c2cn(-c3cccs3)cn2)cc1 [IIc-iii, 4-phenyl-1-(thiophen-2-yl)-1H-imidazole]	–	2.33	1.33	0.00	–
Abamectin [reference compound]	–	–	–	–	1.67^d
Fc1ccc(-n2cc(-c3ccco3)nn2)cc1 [Ia-iv, 1-(4-fluorophenyl)-4-(furan-2-yl)-1H-1,2,3-triazole]	–	2.33	1.67	0.33	–
Fc1ccc(-n2cc(-c3cccs3)nn2)c(F)c1 [Ia-ii, 1-(2,4-difluorophenyl)-4-(thiophen-2-yl)-1H-1,2,3-triazole]	–	3.00	2.33	0.00	–
Clc1ccc(-c2cn(-c3cccs3)cn2)cc1 [IIc-i, 4-(4-chlorophenyl)-1-(thiophen-2-yl)-1H-imidazole]	–	1.67	1.33	0.00	–
c1ccc(-n2cc(-c3cccs3)cn2)cc1 [Ib-i, 1-phenyl-4-(thiophen-2-yl)-1H-pyrazole]	–	3.00	0.33	0.00	–
Clc1ccc(-n2cnc(-c3ccco3)c2)cc1 [Ic-i, 1-(4-chlorophenyl)-4-(furan-2-yl)-1H-imidazole]	–	3.00	2.00	0.33	–
c1ccc(-c2cn(-c3cccs3)nn2)cc1 [IIa-ii, 4-phenyl-1-(thiophen-2-yl)-1H-1,2,3-triazole]	–	1.67	0.00	0.00	–
c1ccc(-n2cc(-c3ccco3)nn2)cc1 [Formula Ia-i, 4-(furan-2-yl)-1-phenyl-1H-1,2,3-triazole]	118 to 120 °C	–	–	–	–
c1ccc(-n2ncc(-c3cccs3)n2)cc1 [Id-i, 2-phenyl-4-(thiophen-2-yl)-2H-1,2,3-triazole]	–	1.67	0.33	0.00	–
